# Experimental data published in ChEMBL document CHEMBL5728971, “Small molecule inhibitors of lactate dehydrogenase and methods of use thereof” (2022).
# Where “and” joins values, the source holds several entries; their conditions need not be identical. Equal entries are not always repeated.
# Experiment: Biochemical Assay: Test compounds were placed in a Greiner Bio-One (Monroe, N.C.) 1536-well black solid bottom assay plate. 200 millimolar (mM) Tris HCl, pH 7.4, 100 micromolar (μM) EDTA and 0.01% TWEEN-20™, final concentration, was used as the assay buffer. The LDHA reagent was 2 nanomolar (nM) Human LDHA (Meridian Life Science, Inc., Memphis, Tenn.), final concentration, in assay buffer.
row,IC50,SMILES
1,< 100 nM,NS(=O)(=O)c1ccc(Cc2c(-c3ccc(F)c(-c4ccccc4)c3)nn(-c3nc(C(=O)O)cs3)c2CC2CC2)cc1F
2,in the range around 29000 nM,COc1cccc(-c2cc(-c3c(Cc4ccc(S(N)(=O)=O)c(F)c4)c(CC4CC4)nn3-c3nc(C(=O)O)cs3)ccc2F)c1
3,< 100 nM,NS(=O)(=O)c1ccc(Cc2c(-c3cccc(OC4CCCC4)c3)nn(-c3nc(C(=O)O)cs3)c2CC2CC2)cc1F
4,in the range around 29000 nM,NS(=O)(=O)c1ccc(Cc2c(-c3cccc(-c4ccccc4)c3)nn(-c3nc(C(=O)O)cs3)c2C2(C(F)(F)F)CC2)cc1F
5,> 57000 nM,NC(=O)c1ccc(Cc2c(-c3cccc(-c4ccccc4)c3)nn(-c3nc(C(=O)O)cs3)c2O)cc1
6,in the range around 29000 nM,NS(=O)(=O)c1ccc(Cc2c(CC3CC3)nn(-c3nc(C(=O)O)cs3)c2-c2ccc(F)c(Br)c2)cc1
7,< 100 nM,NS(=O)(=O)c1ccc(Cc2c(-c3ccc(F)c(-c4cccc(F)c4)c3)nn(-c3nc(C(=O)O)cs3)c2CC2CC2)cc1
8,< 100 nM,NS(=O)(=O)c1ccc(Cc2c(-c3cccc(OCc4ccccc4)c3)nn(-c3nc(C(=O)O)cs3)c2CC2CC2)c(F)c1
9,< 100 nM,NS(=O)(=O)c1ccc(Cc2c(-c3cccc(-c4ccc(F)cc4)c3)nn(-c3nc(C(=O)O)cs3)c2C(F)(F)F)cc1
10,< 100 nM,NS(=O)(=O)c1ccc(Cc2c(-c3ccc(F)c(-c4ccc(C5CC5)cc4)c3)nn(-c3nc(C(=O)O)cs3)c2CC2CC2)cc1
11,< 100 nM,Cc1ccc(-c2cc(-c3nn(-c4nc(C(=O)O)cs4)c(CC4CC4)c3Cc3ccc(S(N)(=O)=O)cc3F)ccc2F)cc1
12,in the range around 29000 nM and > 57000 nM,CCOC(=O)c1csc(-n2nc(-c3cccc(-c4ccc(C)cc4)c3)c(Cc3ccc(S(N)(=O)=O)c(F)c3)c2CC2CC2)n1
13,< 100 nM,NS(=O)(=O)c1ccc(Cc2c(-c3ccc(F)c(-c4ccc(F)cc4)c3)nn(-c3nc(C(=O)O)cs3)c2CC2CC2)cc1
14,< 100 nM,NS(=O)(=O)c1ccc(Cc2c(-c3cccc(-c4ccccc4)c3)nn(-c3nc(C(=O)O)cs3)c2CC2CC2)cc1
15,< 100 nM,NS(=O)(=O)c1ccc(Oc2c(-c3ccccc3)nn(-c3nc(C(=O)O)cs3)c2C2CC2)cc1
16,< 100 nM,NS(=O)(=O)c1ccc(Cc2c(-c3cccc(OC4CCCC4)c3)nn(-c3nc(C(=O)O)cs3)c2CC2CC2)c(F)c1
17,< 100 nM,CC(C)(C)Cc1cc(-c2nn(-c3nc(C(=O)O)cs3)c(CC3CC3)c2Cc2ccc(S(N)(=O)=O)c(F)c2)ccc1F
18,< 100 nM,NS(=O)(=O)c1ccc(Cc2c(-c3cccc(C4CCCC4)c3)nn(-c3nc(C(=O)O)cs3)c2CC2CC2)cc1
19,< 100 nM,NS(=O)(=O)c1ccc(Cc2c(-c3ccc(F)c(-c4cccc(CN5CCOCC5)c4)c3)nn(-c3nc(C(=O)O)cs3)c2CC2CC2)cc1F

row,IC50,SMILES
1,< 100 nM,COc1cccc(-c2cc(-c3nn(-c4nc(C(=O)O)cs4)c(CC4CC4)c3Cc3ccc(S(N)(=O)=O)cc3)ccc2F)c1
2,< 100 nM,CC#Cc1cccc(-c2nn(-c3nc(C(=O)O)cs3)c(CC3CC3)c2Cc2ccc(S(N)(=O)=O)c(F)c2)c1
3,< 100 nM,Cc1ccc(-c2cccc(-c3nn(-c4nc(C(=O)O)cs4)c(CC4CC4)c3Cc3ccc(S(N)(=O)=O)cc3)c2)cc1
4,in the range around 29000 nM,NS(=O)(=O)c1ccc(Cc2c(CC(F)(F)F)nn(-c3nc(C(=O)O)cs3)c2-c2cccc(-c3ccccc3)c2)cc1
5,< 100 nM,CCC(C)(C)c1cc(-c2nn(-c3nc(C(=O)O)cs3)c(CC3CC3)c2Cc2ccc(S(N)(=O)=O)c(F)c2)ccc1F
6,< 100 nM,NS(=O)(=O)c1ccc(Cc2c(-c3cccc(OCc4ccccc4)c3)nn(-c3nc(C(=O)O)cs3)c2CC2CC2)cc1
7,< 100 nM,Cc1ccc(-c2cccc(-c3nn(-c4nc(C(=O)O)cs4)c(CC4CC4)c3Cc3ccc(S(N)(=O)=O)cc3F)c2)cc1
8,< 100 nM,NS(=O)(=O)c1ccc(Cc2c(-c3cccc(-c4ccccc4)c3)nn(-c3nc(C(=O)O)cs3)c2CC2CC2)c(F)c1
9,< 100 nM,NS(=O)(=O)c1ccc(Cc2c(-c3ccc(F)c(C#Cc4cccs4)c3)nn(-c3nc(C(=O)O)cs3)c2CC2CC2)cc1F
10,in the range around 550 nM,CNS(=O)(=O)c1ccc(Cc2c(-c3ccc(F)c(-c4cccc(F)c4)c3)nn(-c3nc(C(=O)O)cs3)c2CC2CC2)cc1F
11,> 57000 nM,CCOC(=O)c1csc(-n2nc(-c3ccc(F)c(-c4cccc(F)c4)c3)c(Cc3ccc(S(N)(=O)=O)c(F)c3)c2CC2CC2)n1
12,< 100 nM,NS(=O)(=O)c1ccc(Cc2c(-c3cccc(OC4CCCC4)c3)nn(-c3nc(C(=O)O)cs3)c2CC2CC2)cc1
13,in the range around 29000 nM,Cc1ccc(-c2cccc(-c3c(Cc4ccc(S(N)(=O)=O)cc4)c(CC4CC4)nn3-c3nc(C(=O)O)cs3)c2)cc1
14,< 100 nM,Cc1ccc(-c2cccc(-c3nn(-c4nc(C(=O)O)cs4)c(CC4CC4)c3Cc3ccc(S(N)(=O)=O)c(F)c3)c2)cc1
15,< 100 nM,NS(=O)(=O)c1ccc(Cc2c(-c3cccc(S(F)(F)(F)(F)F)c3)nn(-c3nc(C(=O)O)cs3)c2CC2CC2)cc1F
16,in the range around 29000 nM,NS(=O)(=O)c1ccc(Cc2c(C3CCCC3)nn(-c3nc(C(=O)O)cs3)c2-c2ccccc2)cc1
17,< 100 nM,NS(=O)(=O)c1ccc(Cc2c(-c3ccc(F)c(-c4cccs4)c3)nn(-c3nc(C(=O)O)cs3)c2CC2CC2)cc1F
18,< 100 nM,NS(=O)(=O)c1ccc(Cc2c(-c3cccc(N4CCCC(F)(F)C4)c3)nn(-c3nc(C(=O)O)cs3)c2CC2CC2)cc1F

# More lines, now with the values behind:
row,SMILES,IC50
1,NS(=O)(=O)c1ccc(Cc2c(-c3ccc(F)c(-c4ccc(F)cc4)c3)nn(-c3nc(C(=O)O)cs3)c2C2CC2)cc1F,< 100 nM
2,NS(=O)(=O)c1ccc(Cc2c(-c3ccc(F)c(C#CC(F)F)c3)nn(-c3nc(C(=O)O)cs3)c2CC2CC2)cc1F,< 100 nM
3,O=C(O)c1csc(-n2nc(-c3cccc(-c4ccccc4F)c3)cc2O)n1,> 57000 nM
4,Cc1noc(C)c1-c1cc(-c2c(Cc3ccc(S(N)(=O)=O)cc3F)c(CC3CC3)nn2-c2nc(C(=O)O)cs2)ccc1F,> 57000 nM
5,NS(=O)(=O)c1ccc(Cc2c(-c3ccc(F)c(C#CCN4CCOCC4)c3)nn(-c3nc(C(=O)O)cs3)c2CC2CC2)cc1F,< 100 nM
6,NS(=O)(=O)c1ccc(Cc2c(C3CC3)nn(-c3nc(C(=O)O)cs3)c2-c2cccc(-c3cccc(F)c3)c2)c(F)c1,in the range around 29000 nM
7,CN1CC=C(c2cc(-c3nn(-c4nc(C(=O)O)cs4)c(CC4CC4)c3Cc3ccc(S(N)(=O)=O)c(F)c3)ccc2F)CC1,< 100 nM
8,O=C(O)c1csc(-n2nc(-c3ccc(F)cc3F)cc2O)n1,> 57000 nM
9,COc1cccc(-c2cccc(-c3c(Cc4ccc(S(N)(=O)=O)c(F)c4)c(C4CC4)nn3-c3nc(C(=O)O)cs3)c2)c1,in the range around 29000 nM
10,Cc1ccc(-c2cc(-c3c(Cc4ccc(S(N)(=O)=O)cc4F)c(CC4CC4)nn3-c3nc(C(=O)O)cs3)ccc2F)cc1,in the range around 29000 nM
11,CCOC(=O)c1csc(-n2nc(CC3CC3)c(Cc3ccc(S(N)(=O)=O)c(F)c3)c2-c2ccc(F)c(-c3cccc(OC)c3)c2)n1,> 57000 nM
12,NS(=O)(=O)c1ccc(Cc2c(-c3ccc(F)c(-c4ccc(F)cc4)c3)nn(-c3nc(C(=O)O)cs3)c2C(F)(F)F)cc1,< 100 nM
13,NS(=O)(=O)c1ccc(Cc2c(-c3ccc(F)c(C#CC4CCC4)c3)nn(-c3nc(C(=O)O)cs3)c2CC2CC2)cc1F,< 100 nM
14,C=C(C)C#Cc1cc(-c2nn(-c3nc(C(=O)O)cs3)c(CC3CC3)c2Cc2ccc(S(N)(=O)=O)c(F)c2)ccc1F,< 100 nM
15,Cn1cc(-c2cc(-c3c(Cc4ccc(S(N)(=O)=O)c(F)c4)c(CC4CC4)nn3-c3nc(C(=O)O)cs3)ccc2F)cn1,> 57000 nM
16,CCOC(=O)c1csc(-n2nc(C3CCCCC3)c(Oc3ccc(S(N)(=O)=O)cc3)c2-c2ccccc2)n1,> 57000 nM
17,Cc1ccc(-c2cc(-c3nn(-c4nc(C(=O)O)cs4)c(C4CC4)c3Cc3ccc(S(N)(=O)=O)cc3F)ccc2F)cc1,< 100 nM

row,SMILES,IC50
1,NS(=O)(=O)c1ccc(Cc2c(-c3ccc(F)c(C#CC4(O)CCCC4)c3)nn(-c3nc(C(=O)O)cs3)c2CC2CC2)cc1F,< 100 nM
2,NS(=O)(=O)c1ccc(Cc2cn(-c3nc(Br)cs3)nc2-c2ccccc2)cc1,in the range around 29000 nM
3,NS(=O)(=O)c1ccc(Cc2c(-c3ccc(F)c(C#CC4(F)CCOC4)c3)nn(-c3nc(C(=O)O)cs3)c2CC2CC2)cc1F (stereo not given),< 100 nM
4,NS(=O)(=O)c1ccc(Cc2c(-c3ccc(F)c(/C=C/C4CC4)c3)nn(-c3nc(C(=O)O)cs3)c2CC2CC2)cc1F,< 100 nM
5,NS(=O)(=O)c1ccc(Cc2c(C3(C(F)(F)F)CC3)nn(-c3nc(C(=O)O)cs3)c2-c2cccc(-c3ccccc3)c2)cc1F,in the range around 29000 nM
6,NS(=O)(=O)c1ccc(Cc2c(CC3CC3)nn(-c3nc(C(=O)O)cs3)c2-c2ccc(C(O)(C3CC3)C(F)(F)F)cc2)cc1F (stereo not given),in the range around 29000 nM
7,NS(=O)(=O)c1ccc(Cc2c(-c3ccc(F)c(C4C5CC6CC(C5)CC4C6)c3)nn(-c3nc(C(=O)O)cs3)c2CC2CC2)cc1F (stereo not given),in the range around 550 nM
8,NS(=O)(=O)c1ccc(Cc2c(-c3cccc(-c4cccc(F)c4)c3)nn(-c3nc(C(=O)O)cs3)c2C2CC2)cc1F,< 100 nM
9,Cn1cc(-c2cc(-c3nn(-c4nc(C(=O)O)cs4)c(CC4CC4)c3Cc3ccc(S(N)(=O)=O)cc3F)ccc2F)cn1,< 100 nM
10,CCOC(=O)c1csc(-n2nc(-c3ccc(F)c(-c4ccc(C)s4)c3)c(Cc3ccc(S(N)(=O)=O)c(F)c3)c2CC2CC2)n1,> 57000 nM
11,NS(=O)(=O)c1ccc(Cc2c(-c3ccc(F)c(C#CC4CCCC4)c3)nn(-c3nc(C(=O)O)cs3)c2C2CC2)cc1F,< 100 nM
12,NS(=O)(=O)c1ccc(Cc2c(-c3ccc(F)c(C#CC4CCNCC4)c3)nn(-c3nc(C(=O)O)cs3)c2CC2CC2)cc1F,< 100 nM
13,NS(=O)(=O)c1ccc(Cc2c(CC3CC3)nn(-c3nc(C(=O)O)cs3)c2-c2ccc(F)c(-c3cccc(F)c3)c2)c(F)c1,in the range around 29000 nM
14,NS(=O)(=O)c1ccc(Cc2c(-c3ccc(F)c(C#CC4CCCC4)c3)nn(-c3nc(C(=O)O)cs3)c2CC2CC2)cc1F,< 100 nM
15,CC(C)(C)C#Cc1cc(-c2nn(-c3nc(C(=O)O)cs3)c(CC3CC3)c2Cc2ccc(S(N)(=O)=O)c(F)c2)ccc1F,< 100 nM
16,NS(=O)(=O)c1ccc(Cc2c(CC3CC3)nn(-c3nc(C(=O)O)cs3)c2-c2ccc(F)c(-c3cccc(F)c3)c2)cc1F,in the range around 29000 nM
